Measured values from patent publication US10039283B2, “Substituted pyrazolyl-nicotin(thio)amide derivatives and their use as fungicides” (BAYER CROPSCIENCE AKTIENGESELLSCHAFT, priority 2014, dated 2018).

Assay: Log P by HPLC on reversed phase, method [a], acidic range (0.1% formic acid)
Assay type: physicochemical
Details: LC-UV, 0.1% formic acid in water and acetonitrile

LogP	Compound
3.43^[a]	O=C(Nc1cnn(-c2ccc(Br)cc2)c1SC(F)(F)F)c1cccnc1C(F)F [Example 228]
3.24^[a]	O=C(Nc1cnn(-c2ccc(C(F)(F)F)cc2)c1-c1ccccc1)c1cccnc1C(F)F [Example 186]
2.25^[a]	Cc1c(NC(=O)c2cccnc2C(F)F)cnn1-c1cccc(Cl)c1 [Example 5]
2.80^[a]	O=C(Nc1cnn(-c2ccc(Br)cc2)c1C(F)F)c1cccnc1C(F)F [Example 28]
3.59^[a]	O=C(Nc1cnn(-c2ccc(-c3ccccc3)cc2)c1C(F)(F)F)c1cccnc1C(F)F [Example 232]
2.09^[a]	COc1ccc(-n2ncc(NC(=O)c3cccnc3C(F)F)c2Cl)cc1 [Example 189]
1.85^[a]	COc1c(NC(=O)c2cccnc2C(F)F)cnn1-c1ccccc1Cl [Example 215]
2.28^[a]	N#Cc1c(NC(=O)c2cccnc2C(F)F)cnn1-c1ccccc1 [Example 143]
2.01^[a]	CCc1c(NC(=O)c2cccnc2C(F)F)cnn1-c1ccccc1 [Example 119]
2.88^[a]	O=C(Nc1cnn(-c2ccc(Cl)cc2)c1OCC(F)(F)F)c1cccnc1C(F)F [Example 221]
3.02^[a]	O=C(Nc1cnn(-c2ccc(Cl)cc2)c1C(F)(F)F)c1cccnc1C(F)F [Example 10]
2.20^[a]	O=C(Nc1cnn(-c2ccc(F)cc2)c1C(F)F)c1cccnc1C(F)F [Example 32]
2.28^[a]	CCCc1c(NC(=O)c2cccnc2C(F)F)cnn1-c1ccccc1 [Example 121]
2.07^[a]	O=C(Nc1cnn(-c2ccccc2)c1Cl)c1cccnc1C(F)F [Example 137]
2.48^[a]	CCc1c(NC(=O)c2cccnc2C(F)F)cnn1-c1ccc(Cl)cc1 [Example 105]
2.67^[a]	O=C(Nc1cnn(-c2ccc(Br)cc2)c1Br)c1cccnc1C(F)F [Example 150]
2.17^[a]	O=C(Nc1cnn(-c2ccc(F)cc2)c1Br)c1cccnc1C(F)F [Example 192]
2.32^[a]	O=C(Nc1cnn(-c2ccccc2F)c1C(F)F)c1cccnc1C(F)F [Example 33]
3.59^[a]	CCCc1ccc(-n2ncc(NC(=O)c3cccnc3C(F)F)c2C(F)(F)F)cc1 [Example 229]

LogP	Compound
2.37^[a]	Cc1ccccc1-n1ncc(NC(=O)c2cccnc2C(F)F)c1C(F)F [Example 27]
2.51^[a]	O=C(Nc1cnn(-c2ccccc2C(F)(F)F)c1C(F)F)c1cccnc1C(F)F [Example 31]
3.21^[a]	O=C(Nc1cnn(-c2ccc(C(F)(F)F)cc2)c1C(F)(F)F)c1cccnc1C(F)F [Example 50]
2.53^[a]	O=C(Nc1cnn(-c2ccccc2)c1C(F)(F)F)c1cccnc1C(F)F [Example 9]
4.11^[a]	O=C(Nc1cnn(-c2ccc(OC3CCCCC3)cc2)c1C(F)(F)F)c1cccnc1C(F)F [Example 254]
2.37^[a]	O=C(Nc1cnn(-c2cccc(F)c2)c1C(F)F)c1cccnc1C(F)F [Example 25]
2.48^[a]	Cc1c(NC(=O)c2cccnc2C(F)F)cnn1-c1cccc(C(F)(F)F)c1 [Example 113]
2.18^[a]	O=C(Nc1cnn(-c2ccccc2Cl)c1Br)c1cccnc1C(F)F [Example 217]
2.64^[a]	N#Cc1c(NC(=O)c2cccnc2C(F)F)cnn1-c1ccc(Cl)cc1 [Example 223]
3.59^[a]	O=C(Nc1cnn(-c2ccc(Oc3ccccc3)cc2)c1C(F)(F)F)c1cccnc1C(F)F [Example 233]
2.68^[a]	O=C(Nc1cnn(-c2ccc(Br)cc2)c1OCC(F)F)c1cccnc1C(F)F [Example 235]
3.46^[a]	O=C(Nc1cnn(-c2ccc(Br)cc2)c1-c1ccc(Cl)cc1)c1cccnc1C(F)F [Example 200]
2.76^[a]	CCc1c(NC(=O)c2cccnc2C(F)F)cnn1-c1ccc(C(F)(F)F)cc1 [Example 118]
3.47^[a]	O=C(Nc1cnn(-c2ccc(Br)cc2)c1Cl)c1cccnc1C(F)F [Example 151]
2.92^[a]	O=C(Nc1cnn(-c2ccc(F)cc2)c1-c1cccc(Cl)c1)c1cccnc1C(F)F [Example 128]
2.55^[a]	O=C(Nc1cnn(-c2ccc(Cl)cc2)c1Cl)c1cccnc1C(F)F [Example 183]
2.69^[a]	CCc1c(NC(=O)c2cccnc2C(F)F)cnn1-c1cccc(C(F)(F)F)c1 [Example 117]
3.79^[a]	CC(C)(C)c1ccc(-n2ncc(NC(=O)c3cccnc3C(F)F)c2C(F)(F)F)cc1 [Example 231]

Continued, compound first:

Compound	LogP
Cc1ccc(Oc2ccc(-n3ncc(NC(=O)c4cccnc4C(F)F)c3C(F)(F)F)cc2)cc1 [Example 245]	4.03^[a]
Cc1cnc(C(F)F)c(C(=O)Nc2cnn(-c3ccc(OC(F)(F)F)cc3)c2C)c1 [Example 241]	2.86^[a]
Cc1c(NC(=O)c2cccnc2C(F)F)cnn1-c1ccccc1Cl [Example 47]	1.94^[a]
Cc1cnc(C(F)F)c(C(=O)Nc2cnn(C3CCCC3)c2C)c1 [Example 40]	2.09^[a]
Cc1cnc(C(F)F)c(C(=O)Nc2cnn(-c3ccccc3C)c2C(C)C)c1 [Example 205]	2.60^[a]
Cc1c(NC(=O)c2ccc(Cl)nc2C(F)F)cnn1C1CCCC1 [Example 41]	2.46^[a]
CCCCn1ncc(NC(=O)c2cccnc2C(F)F)c1C(C)C [Example 123]	2.18^[a]
Cc1ccc(-n2ncc(NC(=O)c3cc(C)cnc3C(F)F)c2C(C)C)cc1 [Example 208]	2.73^[a]
Cc1cnc(C(F)F)c(C(=O)Nc2cnn(-c3ccc(F)cc3)c2C(F)(F)F)c1 [Example 141]	2.86^[a]
O=C(Nc1cnn(-c2cc(F)c(F)c(F)c2)c1Cl)c1cccnc1C(F)F [Example 253]	2.66^[a]
Cc1ccc(C)c(-n2ncc(NC(=O)c3ccc(Cl)nc3C(F)F)c2C)c1 [Example 45]	2.88^[a]
O=C(Nc1cnn(-c2cccc(C(F)(F)F)c2)c1-c1cccc(Cl)c1)c1cccnc1C(F)F [Example 53]	3.48^[a]
O=C(Nc1cnn(-c2ccc(Cl)c(Cl)c2)c1C(F)(F)F)c1ccc(Cl)nc1C(F)F [Example 180]	4.11^[a]
O=C(Nc1cnn(-c2ccccc2C(F)(F)F)c1C(F)(F)F)c1cccnc1C(F)F [Example 49]	2.82^[a]
O=C(Nc1cnn(-c2cccc(Cl)c2Cl)c1C(F)(F)F)c1ccc(Br)nc1C(F)F [Example 144]	3.80^[a]
O=C(Nc1cnn(-c2ccc(Oc3ccc(Cl)cc3)cc2)c1C(F)(F)F)c1cccnc1C(F)F [Example 244]	4.11^[a]
Cc1nn(-c2ccccc2)c(C)c1NC(=O)c1cccnc1C(F)F [Example 17]	1.81^[a]
Cc1cnc(C(F)F)c(C(=O)Nc2cnn(C(C)C)c2C2CC2)c1 [Example 42]	1.95^[a]
Cc1nn(-c2ccccc2)c(Br)c1NC(=O)c1cccnc1C(F)F [Example 35]	2.07^[a]
O=C(Nc1cnn(-c2ccccc2C(F)(F)F)c1-c1cccc(Cl)c1)c1cccnc1C(F)F [Example 78]	3.06^[a]
Cc1cccc(-n2ncc(NC(=O)c3cc(C)cnc3C(F)F)c2C(F)(F)F)c1 [Example 154]	2.96^[a]
O=C(Nc1cnn(-c2cccc(Cl)c2Cl)c1C(F)(F)F)c1ccc(Cl)nc1C(F)F [Example 163]	3.71^[a]

Compound	LogP
CCc1c(NC(=O)c2cc(C)cnc2C(F)F)cnn1-c1ccc(C)cc1 [Example 207]	2.57^[a]
O=C(Nc1cnn(-c2ccc(Cl)cc2Cl)c1C(F)(F)F)c1cccnc1C(F)F [Example 93]	3.27^[a]
Cc1c(NC(=O)c2cccnc2C(F)F)cnn1CCC(C)C [Example 2]	2.01^[a]
CCC(CC)n1ncc(NC(=O)c2ccc(Cl)nc2C(F)F)c1C [Example 39]	2.51^[a]
O=C(Nc1cnn(-c2ccc(Cl)cc2)c1C(F)(F)F)c1cccnc1CF [Example 236]	2.67^[a]
O=C(Nc1cnn(-c2ccc(C(F)(F)F)cc2)c1-c1ccc(Cl)cc1)c1cccnc1C(F)F [Example 182]	3.55^[a]
Cc1c(NC(=O)c2ccc(Cl)nc2C(F)F)cnn1C(C)(C)C [Example 37]	2.25^[a]
CCc1c(NC(=O)c2cc(C)cnc2C(F)F)cnn1-c1cccc(Cl)c1 [Example 213]	2.71^[a]
COc1cnc(C(F)F)c(C(=O)Nc2cnn(-c3cccc(Cl)c3Cl)c2C(F)(F)F)c1 [Example 165]	3.37^[a]
CCC(C)n1ncc(NC(=O)c2cccnc2C(F)F)c1C (stereo not shown) [Example 126]	1.63^[a]
Cc1cnc(C(F)F)c(C(=O)Nc2cnn(-c3ccccc3Cl)c2C)c1 [Example 69]	2.17^[a]
Cc1c(NC(=O)c2cccnc2C(F)F)cnn1-c1ccccc1C(F)(F)F [Example 111]	2.08^[a]
Cc1nn(-c2ccccc2)c(C)c1NC(=O)c1cccnc1C(F)(F)F [Example 18]	2.07^[a]
Cc1c(NC(=O)c2ccc(Cl)nc2C(F)F)cnn1-c1ccccc1Cl [Example 70]	2.56^[a]
O=C(Nc1cnn(-c2ccccc2Cl)c1-c1ccc(F)cc1)c1cccnc1C(F)F [Example 83]	2.66^[a]
O=C(Nc1cnn(-c2ccc(Cl)c(Cl)c2)c1C(F)(F)F)c1ccc(Br)nc1C(F)F [Example 181]	4.19^[a]
Cc1cnc(C(F)F)c(C(=O)Nc2cnn(-c3ccc(Cl)cc3)c2C(C)C)c1 [Example 211]	2.86^[a]
O=C(Nc1cnn(-c2ccc(C(F)(F)F)cc2)c1-c1ccc(F)cc1)c1cccnc1C(F)F [Example 184]	3.31^[a]
Cc1ccc(-n2ncc(NC(=O)c3ccc(Cl)nc3C(F)F)c2C(F)(F)F)cc1 [Example 157]	3.48^[a]
Cc1ccccc1-n1ncc(NC(=O)c2cccnc2C(F)F)c1C(C)C [Example 106]	2.37^[a]
CCc1c(NC(=O)c2cccnc2C(F)F)cnn1CCC(C)C [Example 124]	2.32^[a]
Cc1cnc(C(F)F)c(C(=O)Nc2cnn(-c3ccc(Cl)cc3)c2C)c1 [Example 71]	2.49^[a]

Same assay, conditions: reversed phase HPLC column, LC-UV, 0.1% formic acid in water and acetonitrile

chromatographic logP	Compound
2.8	O=C(Nc1cnn(-c2ccccc2)c1C(F)(F)F)c1ccc(Cl)nc1C(F)F [Example 1, 6-chloro-2-(difluoromethyl)-N-[1-phenyl-5-(trifluoromethyl)-1H-pyrazol-4-yl]nicotinamide]
